Test results taken from PubChem BioAssay (NCI).
Several values for one entry are separate records, joined by “and”; a condition that tells them apart may be missing. Equal values may be shown once.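 Growth conditions: 96-well plates. Treatment: test compound, 48 hours, 5 concentrations. Analysis: linear interpolation between bracketing concentrations; unreached endpoints set to highest concentration. Abbreviation: GI50, concentration required for 50% inhibition of growth. At the TGI there is no net growth.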

Key:
Test in all cases: NCI-60 cell line screen, 48 h
HOP-62 NSCLC = system: HOP-62 NSCLC
M14 melanoma = system: M14 melanoma
OVCAR-3 ovarian = system: OVCAR-3 ovarian
OVCAR-8 ovarian = system: OVCAR-8 ovarian
SK-MEL-5 melanoma = system: SK-MEL-5 melanoma
HOP-92 NSCLC = system: HOP-92 NSCLC

Compound | GI50 (HOP-62 NSCLC) [µM] | TGI (HOP-62 NSCLC) [µM] | GI50 (M14 melanoma) | TGI (M14 melanoma) [µM] | GI50 (OVCAR-3 ovarian) | TGI (OVCAR-3 ovarian) | GI50 (OVCAR-8 ovarian) | TGI (OVCAR-8 ovarian) [µM] | GI50 (SK-MEL-5 melanoma) | TGI (SK-MEL-5 melanoma) | GI50 (HOP-92 NSCLC) [µM] | TGI (HOP-92 NSCLC) [µM]
Cn1cc(C2=C(c3cccc(Cl)c3)C(=O)NC2=O)c2ccccc21 | > 25 | > 25 | 8.03 µM | 23 | > 25 µM | > 25 µM | > 25 µM | > 25 | 10.7 µM | > 25 µM |  | 
COC(=O)C12CC(NC(=O)c3csc([C@@H](C[C@H](C(C)C)N(C)C(=O)[C@@H](NC(=O)[C@H]4CCCCN4C)C(C)C)OC(C)=O)n3)(C1)C2 | 0.00353 |  | 0.00176 µM and 0.00333 µM | > 33.3 | 0.000335 µM and 0.00333 µM | 0.0024 µM and 0.00441 µM | 0.00429 µM and 0.00333 µM | > 33.3 | 0.000829 µM and 0.00333 µM | 0.0324 µM and 0.173 µM | > 33.3 | > 33.3
COC(=O)CCCCCCCCC(=O)c1c(C)[nH]c(/C=C2\N=C(c3ccc[nH]3)C=C2OC)c1C | 11.2 | > 57.9 | 2.64 µM | > 21.3 | > 48.1 µM | > 86.3 µM | 14.4 µM | > 59.9 | 1.97 µM | 5.67 µM | 4.73 | > 30.5
CCN(CC)CCn1nc2c3c(cccc3c1=O)-c1ccccc1-2 | 2.18 | 15.9 | 2.15 µM | 13.1 | 3.78 µM | 45.2 µM | 2.23 µM | > 50 | 1.51 µM | 4.08 µM | 3.11 | 24.9
C=C1C(=O)O[C@H]2[C@H]1CC/C(COC(=O)c1ccc(Br)cc1)=C\CC[C@@]1(C)O[C@@H]21 |  |  | 1.47 µM | 3.2 | 1.02 µM | 2.24 µM | 1.87 µM | 5 | 1.81 µM | 3.28 µM | 1.72 | 3.29
CCCCOc1nc2ccccc2cc1C1CNC(=O)c2ccccc2N1 (configuration not stated) | 3.08 | 17.7 | 1.53 µM | 9.03 | 1.56 µM | 3.86 µM | 3.64 µM | 15.7 | 2.79 µM | 18.4 µM | 4.57 | 26.6
NS(=O)(=O)c1ccc(N=Nc2cc3ccccc3c(C(=O)O)c2O)cc1 |  | > 100 |  | > 100 |  | > 87.6 µM |  | > 100 |  | > 100 µM |  | > 100
Cn1cc(C2=C(c3cn(C)c4cc(Cl)ccc34)C(=O)NC2=O)c2ccccc21 | 0.124 | > 25 | 0.0879 µM | > 25 | 0.0653 µM | 0.154 µM | 0.117 µM | > 25 | 0.102 µM | 2.39 µM | 0.146 | > 23
O=C(c1nc2ccccc2[nH]1)C1C(c2cccc([N+](=O)[O-])c2)C2CC3CCCCC3N2[C@@]12C(=O)Nc1cc(Cl)ccc12 (some centres not stated) | 1.86 | 4.62 |  |  |  |  | 2.68 µM | 20.1 | 1.69 µM | 3.1 µM | 1.37 | 3.64
CCc1cc(Nc2nccc(-c3c(-c4ccc(OC)c(C(=O)Nc5c(F)cccc5F)c4)nc4ccccn34)n2)c(OC)cc1N1CCC(N2CCN(S(C)(=O)=O)CC2)CC1 | > 100 | > 100 | > 58.1 µM | > 100 | > 100 µM | > 100 µM | > 100 µM | > 100 | > 64.8 µM | > 100 µM | 1.14 | > 80
Nc1cc2ccncc2c2ccccc12 | 13.7 | > 100 | 14.5 µM | 32.1 | 18.8 µM | 76.5 µM | 5.25 µM | > 100 | 15.3 µM | 31.2 µM | 19.6 | 68.9
Fc1ccc(-c2ncn(C3CCNCC3)c2-c2ccnc(Oc3ccc(Oc4ccccc4)cc3)n2)cc1 | 4.05 | 7.64 | 4.31 µM | 7.99 | 4.36 µM | 7.94 µM | 4.2 µM | 8.4 | 3.55 µM | 6.82 µM | 0.651 | 4.15
COc1ccc(C2C3=C(COC3=O)N(CCO)c3cc4c(cc32)CCC4)cc1OC (configuration not stated) | 1.08 | > 50 | 0.542 µM | > 11.8 | 0.127 µM | 0.332 µM | 1.74 µM | > 50 | 0.246 µM | > 50 µM | > 50 | > 50
Cc1c(-c2ccnc(N)n2)c2c(n1-c1ccccc1)C(=O)c1ccccc1C2=O | 6.61 | 37.6 | 46.8 µM | > 100 | 12.3 µM | 30.6 µM | 17.2 µM | > 100 | 16.2 µM | 34.1 µM | > 100 | > 100
O=C1c2ccccc2-c2c1c1ccccc1c(=O)n2CCCNCCO | 0.317 | 2.61 | 1.21 µM | 3 | 1.07 µM | 6.13 µM | 0.239 µM | 11.6 | 0.198 µM | 0.877 µM | 0.357 | 2.61
CCN(CC)c1ccc(/C=C2/NC(=O)NC2=O)cc1 | 10 | > 100 | 3.3 µM | 38.9 | 2.41 µM | 7.18 µM | 14.7 µM | > 100 | 3.19 µM | > 74.9 µM | 9.01 | > 93.1
O=C(N/N=C\c1cc(Br)cc(Br)c1O)N/N=C/c1cc(Br)cc(Br)c1O | 8.99 | 22.8 | 4.29 µM | 19 | 4.03 µM | 16.3 µM | 2.88 µM | 16.7 | 1.83 µM | 4.69 µM | 1.85 | 16.4
O=C(Nc1ccc(I)cc1F)c1cc(F)ccc1O | 1.77 | 6.46 | 0.407 µM | 3.26 | 0.395 µM | > 56.4 µM | 1.07 µM | 48.7 | 0.229 µM | 0.556 µM | 0.169 | 0.504
COc1ccc(OC)c(/C=C/C(=O)c2ccc(SC)cc2)c1 | 18.4 | 52.3 | 12.6 µM | 27.1 | 0.0897 µM | 2.7 µM | 24.3 µM | 68.7 | 3.31 µM | 14 µM | 6 | > 100
CN1CCN(Cc2ccc(NC(=O)c3cncc(C#Cc4cncc5[nH]ncc45)c3)cc2C(F)(F)F)CC1 | 0.882 | 4.86 | 0.157 µM | 0.706 | 1.46 µM | 6.39 µM | 1.5 µM | 6.73 | 1.17 µM | 4.58 µM | 0.156 | 1.26

Compound | GI50 (HOP-62 NSCLC) [µM] | TGI (HOP-62 NSCLC) [µM] | GI50 (M14 melanoma) | TGI (M14 melanoma) [µM] | GI50 (OVCAR-3 ovarian) | TGI (OVCAR-3 ovarian) | GI50 (OVCAR-8 ovarian) | TGI (OVCAR-8 ovarian) [µM] | GI50 (SK-MEL-5 melanoma) | TGI (SK-MEL-5 melanoma) | GI50 (HOP-92 NSCLC) [µM] | TGI (HOP-92 NSCLC) [µM]
CC(=O)O[C@H]1Cc2c([nH]c3ccccc23)[C@@H](c2ccc(Cl)cc2)N1C(=O)CCNC(C)(C)C | 2.67 | 7.07 | 2.05 µM | 6.96 | 3.98 µM | 8.59 µM | 4.86 µM | 9.45 | 1.28 µM | 4.61 µM | 1.1 | 5.61
Clc1cc(-c2csc(Cl)c2)cs1 |  |  |  | > 100 |  | > 100 µM |  | > 100 |  | > 100 µM |  | > 100
COC(=O)C1=C(C)NC(C)=C(C(=O)OC)C1c1ccccc1[N+](=O)[O-] | > 100 | > 100 | > 100 µM | > 100 | 93.2 µM | > 100 µM | 64.8 µM | > 100 |  |  | 23.3 | > 100
CCn1c(-c2nonc2N)nc2c(C#CC(C)(C)O)ncc(OCC3CCNCC3)c21 | 11.5 | > 25 | 13.4 µM | > 25 | 7.07 µM | > 23.6 µM | 9.68 µM | > 25 | 8.87 µM | > 21.2 µM | > 25 | > 25
CO[C@H]1/C=C/C=C/C=C/C[C@H](OC(=O)[C@@H](C)NC(=O)C2CCCCC2)[C@H](C)[C@@H](O)/C(C)=C\CCC2=CC(=O)C=C(NC(=O)C1)C2=O | 0.125 | 0.68 | 0.119 µM | 0.746 | 0.154 µM | 0.997 µM | 0.194 µM | 1.57 | 0.0845 µM | 0.521 µM | 0.162 | 1.98
CCN(Cc1cccc(C)c1)c1ccc(CO)c(Cl)c1 | 2.55 | 22 | 14.3 µM | 29.8 | 1.5 µM | 8.77 µM | 12.3 µM | 28.3 | 9.25 µM | 22 µM | 2.16 | 13.5
NC(=S)c1cn(C2OC(CO)C(O)C2O)c2ncnc(N)c12 (configuration not stated) | 0.065 | 1.95 | 0.0989 µM | 0.354 | 0.173 µM | 1.23 µM | 0.209 µM |  | 0.223 µM | 0.975 µM | 0.154 | 
COc1ccc2c(c1)/C(=N/OC(C)=O)c1c-2c(Nc2ccc(/C(C)=N/OC(C)=O)cc2)nc2ccccc12 | 38.1 | > 100 | 68.9 µM | > 100 | 30.1 µM | 87.4 µM | 63.3 µM | > 100 | 79.4 µM | > 100 µM | 70.1 | > 100
CC1CCCc2c(CC3CC(=O)NC(=O)C3)nc(N)nc21 (configuration not stated) |  | > 100 |  | > 100 |  | > 100 µM |  | > 100 |  | > 100 µM |  | > 100
Cc1ccc(/C=C2\CN(C(=O)CCN3CCC(=NO)CC3)C/C(=C\c3ccc(C)cc3)C2=O)cc1 |  |  |  |  |  |  |  |  | 1.73 µM | 3.16 µM | 1.86 | 4.6
Clc1ccc2c(NCCNc3nc(Cl)nc4ccccc34)ccnc2c1 | 0.56 | 2.09 | 1.84 µM | 3.51 | 1.29 µM | 2.68 µM | 1.49 µM | 3.34 | 1.76 µM | 3.22 µM | 1.74 | 3.4
N#CCCCCCn1c2ccccc2c2c3c(c4c5ccccc5[nH]c4c21)C(=O)N(O)C3=O | 0.468 | 2.79 | 0.595 µM | 2.51 | 1.47 µM | 5.72 µM |  |  | 0.403 µM | 1.5 µM | 2.46 | 5.24
O=C(CN1CCN(c2cc3c(cc2F)c(=O)c(C(=O)O)cn3C2CC2)CC1)Nc1ccc(C(=O)/C=C/c2ccccc2)cc1 | 4.46 | > 100 | 5.22 µM | > 100 | 3.65 µM | > 100 µM | 3.07 µM | > 100 | 2.74 µM | 13 µM | 0.431 | 3.82
COC(=O)[C@@H](C)C[C@H](Cc1ccccc1)NC(=O)c1csc([C@@H](C[C@H](C(C)C)N(C)C(=O)[C@@H](NC(=O)CN(C)C)C2CC2)OC(C)=O)n1 | 0.0585 | > 16.5 | 0.0185 µM |  | 0.00309 µM |  | 0.0495 µM | > 16.5 | 0.0122 µM | 0.434 µM |  | 
CCN(CC)Cc1cc(Nc2c3ccc(Cl)cc3nc3c(C)cccc23)ccc1O | 1.65 | 3.26 | 1.69 µM | 3.11 | 1.97 µM | 3.73 µM | 1.34 µM | 3.45 | 1.76 µM | 3.15 µM |  | 
Nc1ccc(Sc2ccc3c4c2cccc4c(=O)n2c4ccccc4nc32)cc1 | 4.34 | 17.2 | 4.51 µM | 27.9 | 6.4 µM | 24.4 µM | 5.13 µM | 30.9 | 2.92 µM | 13.9 µM |  | 
CCN1CCN(c2nc(NNC(=O)c3cccc(OC)c3)nc(N3CCN(C(c4ccccc4)c4ccccc4)CC3)n2)CC1 | 5.76 | 23.5 | 1.67 µM | 3.31 | 1.94 µM | 3.78 µM |  |  | 1.64 µM | 3 µM | 1.29 | 3.33
COc1ccc(C(=O)C(CN(C)C)c2ccccc2)cc1 (configuration not stated) | 10.9 | 23.6 | 1.68 µM | 3.33 | 1.42 µM | 2.89 µM | 3.46 µM | 12.5 | 4.22 µM | 15.4 µM |  | 
O=C(O)c1ccccc1/C=C1/Nc2ccccc2C1=O |  | > 100 |  | > 100 |  | > 100 µM |  | > 100 |  |  |  | > 100
